# Source: BindingDB's records for doi:10.1124/jpet.301.1.37 (National Institutes of Health, 2002)
# Values joined by “and” are separate entries in the source; they are usually repeats but may differ in a detail not shown here. Identical values can stand only once.
# How the values were obtained:
# VIP peptides [1] = molecular target: T1, VIP peptides (Homo sapiens, UniProt P01282)
# T1 sequence (P01282 whole entry): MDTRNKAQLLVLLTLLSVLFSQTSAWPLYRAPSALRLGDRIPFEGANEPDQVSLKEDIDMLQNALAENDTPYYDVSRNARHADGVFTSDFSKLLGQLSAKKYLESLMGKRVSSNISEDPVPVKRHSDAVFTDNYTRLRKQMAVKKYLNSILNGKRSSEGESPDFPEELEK
# VIP peptides [2] = molecular target: T2, VIP peptides (Cavia porcellus, UniProt P04566)
# T2 sequence (P04566 whole entry): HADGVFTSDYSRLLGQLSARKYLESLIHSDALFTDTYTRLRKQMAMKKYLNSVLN
Compound,Ki (VIP peptides [1]),Ki (VIP peptides [2]) [nM]
CC[C@H](C)[C@H](NC(=O)[C@H](CO)NC(=O)[C@H](CC(N)=O)NC(=O)[C@H](CC(C)C)NC(=O)[C@H](Cc1ccc(O)cc1)NC(=O)[C@H](CCCCN)NC(=O)[C@H](CCCCN)NC(=O)[C@@H](NC(=O)[C@H](C)NC(=O)[C@H](CCSC)NC(=O)[C@H](CCC(N)=O)NC(=O)[C@H](CCCCN)NC(=O)[C@H](CCCN=C(N)N)NC(=O)[C@H](CC(C)C)NC(=O)[C@H](CCCN=C(N)N)NC(=O)[C@@H](NC(=O)[C@H](Cc1ccc(O)cc1)NC(=O)[C@H](CC(N)=O)NC(=O)[C@H](CC(=O)O)NC(=O)[C@@H](NC(=O)[C@H](Cc1ccccc1)NC(=O)[C@@H](NC(=O)[C@H](C)NC(=O)[C@H](CC(=O)O)NC(=O)[C@H](CO)NC(=O)[C@@H](N)Cc1cnc[nH]1)C(C)C)[C@@H](C)O)[C@@H](C)O)C(C)C)C(=O)N[C@@H](CC(C)C)C(=O)N[C@@H](CC(N)=O)C(=O)O [CAS_37221-79-7],1.7 nM and 1.6 nM,2.5
CC[C@H](C)[C@H](NC(=O)[C@H](CO)NC(=O)[C@H](CC(N)=O)NC(=O)[C@H](CC(C)C)NC(=O)[C@H](Cc1ccc(O)cc1)NC(=O)[C@H](CCCCN)NC(=O)[C@H](CCCCN)NC(=O)[C@@H](NC(=O)[C@@H](C)NC(=O)[C@H](CCSC)NC(=O)[C@H](CCC(N)=O)NC(=O)[C@H](CCCCN)NC(=O)[C@H](CCCN=C(N)N)NC(=O)[C@H](CC(C)C)NC(=O)[C@H](CCCN=C(N)N)NC(=O)[C@@H](NC(=O)[C@H](Cc1ccc(O)cc1)NC(=O)[C@H](CC(N)=O)NC(=O)[C@H](CC(=O)O)NC(=O)[C@@H](NC(=O)[C@H](Cc1ccccc1)NC(=O)[C@@H](NC(=O)[C@H](C)NC(=O)[C@H](CC(=O)O)NC(=O)[C@H](CO)NC(=O)[C@@H](N)Cc1cnc[nH]1)C(C)C)[C@@H](C)O)[C@@H](C)O)C(C)C)C(=O)N[C@@H](CC(C)C)C(=O)N[C@@H](CC(N)=O)C(N)=O [VIP [D-Ala18]],3.5 nM and 15.4 nM and 12.1 nM,17.8
H-HADAVFTDNYTRLRKQMAVKKYLNSILN-NH2 [VIP Ala2],0.43 nM and 3.6 nM and 2.7 nM,2.6
CC[C@H](C)[C@H](NC(=O)[C@H](CO)NC(=O)[C@H](CC(N)=O)NC(=O)[C@H](CC(C)C)NC(=O)[C@H](Cc1ccc(O)cc1)NC(=O)[C@H](CCCCN)NC(=O)[C@H](CCCCN)NC(=O)[C@@H](NC(=O)[C@H](C)NC(=O)[C@H](CCSC)NC(=O)[C@H](CCC(N)=O)NC(=O)[C@H](CCCCN)NC(=O)[C@H](CCCN=C(N)N)NC(=O)[C@H](CC(C)C)NC(=O)[C@H](CCCN=C(N)N)NC(=O)[C@@H](NC(=O)[C@H](Cc1ccc(O)cc1)NC(=O)[C@H](CC(N)=O)NC(=O)[C@H](CC(=O)O)NC(=O)[C@@H](NC(=O)[C@H](Cc1ccccc1)NC(=O)[C@H](NC(=O)[C@H](C)NC(=O)[C@H](CC(=O)O)NC(=O)[C@H](CO)NC(=O)[C@@H](N)Cc1cnc[nH]1)C(C)C)[C@@H](C)O)[C@@H](C)O)C(C)C)C(=O)N[C@@H](CC(C)C)C(=O)N[C@@H](CC(N)=O)C(N)=O [VIP [D-Val5]],6.2 nM and 44.6 nM and 25.1 nM,26.3
H-HSDAVFTDNYTRLRAQMAVKKYLNSILN-NH2 [VIP Ala15],2.1 nM and 16.2 nM and 15.9 nM,1.9
CC[C@H](C)[C@H](NC(=O)[C@H](CO)NC(=O)[C@H](CC(N)=O)NC(=O)[C@H](CC(C)C)NC(=O)[C@H](Cc1ccc(O)cc1)NC(=O)[C@@H](CCCCN)NC(=O)[C@H](CCCCN)NC(=O)[C@@H](NC(=O)[C@H](C)NC(=O)[C@H](CCSC)NC(=O)[C@H](CCC(N)=O)NC(=O)[C@H](CCCCN)NC(=O)[C@H](CCCN=C(N)N)NC(=O)[C@H](CC(C)C)NC(=O)[C@H](CCCN=C(N)N)NC(=O)[C@@H](NC(=O)[C@H](Cc1ccc(O)cc1)NC(=O)[C@H](CC(N)=O)NC(=O)[C@H](CC(=O)O)NC(=O)[C@@H](NC(=O)[C@H](Cc1ccccc1)NC(=O)[C@@H](NC(=O)[C@H](C)NC(=O)[C@H](CC(=O)O)NC(=O)[C@H](CO)NC(=O)[C@@H](N)Cc1cnc[nH]1)C(C)C)[C@@H](C)O)[C@@H](C)O)C(C)C)C(=O)N[C@@H](CC(C)C)C(=O)N[C@@H](CC(N)=O)C(N)=O [VIP [D-Lys21]],93.3 nM and 118 nM and 105 nM,100
H-HSDAVFTANYTRLRKQMAVKKYLNSILN-NH2 [VIP Ala8],0.17 nM and 1.6 nM and 1.2 nM,1.2
CC[C@H](C)[C@H](NC(=O)[C@H](CO)NC(=O)[C@H](CC(N)=O)NC(=O)[C@H](CC(C)C)NC(=O)[C@H](Cc1ccc(O)cc1)NC(=O)[C@H](CCCCN)NC(=O)[C@H](CCCCN)NC(=O)[C@@H](NC(=O)[C@H](C)NC(=O)[C@H](CCSC)NC(=O)[C@H](CCC(N)=O)NC(=O)[C@H](CCCCN)NC(=O)[C@H](CCCN=C(N)N)NC(=O)[C@H](CC(C)C)NC(=O)[C@H](CCCN=C(N)N)NC(=O)[C@H](NC(=O)[C@H](Cc1ccc(O)cc1)NC(=O)[C@H](CC(N)=O)NC(=O)[C@H](CC(=O)O)NC(=O)[C@@H](NC(=O)[C@H](Cc1ccccc1)NC(=O)[C@@H](NC(=O)[C@H](C)NC(=O)[C@H](CC(=O)O)NC(=O)[C@H](CO)NC(=O)[C@@H](N)Cc1cnc[nH]1)C(C)C)[C@@H](C)O)[C@H](C)O)C(C)C)C(=O)N[C@@H](CC(C)C)C(=O)N[C@@H](CC(N)=O)C(N)=O [VIP [D-Thr11]],54.9 nM and 91.2 nM and 110 nM,54.9
CC[C@H](C)[C@H](NC(=O)[C@H](CO)NC(=O)[C@H](CC(N)=O)NC(=O)[C@H](CC(C)C)NC(=O)[C@H](Cc1ccc(O)cc1)NC(=O)[C@H](CCCCN)NC(=O)[C@H](CCCCN)NC(=O)[C@@H](NC(=O)[C@H](C)NC(=O)[C@H](CCSC)NC(=O)[C@H](CCC(N)=O)NC(=O)[C@H](CCCCN)NC(=O)[C@H](CCCN=C(N)N)NC(=O)[C@@H](CC(C)C)NC(=O)[C@H](CCCN=C(N)N)NC(=O)[C@@H](NC(=O)[C@H](Cc1ccc(O)cc1)NC(=O)[C@H](CC(N)=O)NC(=O)[C@H](CC(=O)O)NC(=O)[C@@H](NC(=O)[C@H](Cc1ccccc1)NC(=O)[C@@H](NC(=O)[C@H](C)NC(=O)[C@H](CC(=O)O)NC(=O)[C@H](CO)NC(=O)[C@@H](N)Cc1cnc[nH]1)C(C)C)[C@@H](C)O)[C@@H](C)O)C(C)C)C(=O)N[C@@H](CC(C)C)C(=O)N[C@@H](CC(N)=O)C(N)=O [VIP [D-Leu13]],13.5 nM and 23.4 nM and 16.9 nM,51.2
CC[C@H](C)[C@H](NC(=O)[C@H](CO)NC(=O)[C@@H](CC(N)=O)NC(=O)[C@H](CC(C)C)NC(=O)[C@H](Cc1ccc(O)cc1)NC(=O)[C@H](CCCCN)NC(=O)[C@H](CCCCN)NC(=O)[C@@H](NC(=O)[C@H](C)NC(=O)[C@H](CCSC)NC(=O)[C@H](CCC(N)=O)NC(=O)[C@H](CCCCN)NC(=O)[C@H](CCCN=C(N)N)NC(=O)[C@H](CC(C)C)NC(=O)[C@H](CCCN=C(N)N)NC(=O)[C@@H](NC(=O)[C@H](Cc1ccc(O)cc1)NC(=O)[C@H](CC(N)=O)NC(=O)[C@H](CC(=O)O)NC(=O)[C@@H](NC(=O)[C@H](Cc1ccccc1)NC(=O)[C@@H](NC(=O)[C@H](C)NC(=O)[C@H](CC(=O)O)NC(=O)[C@H](CO)NC(=O)[C@@H](N)Cc1cnc[nH]1)C(C)C)[C@@H](C)O)[C@@H](C)O)C(C)C)C(=O)N[C@@H](CC(C)C)C(=O)N[C@@H](CC(N)=O)C(N)=O [VIP [D-Asn24]],2.6 nM and 11.8 nM and 12.6 nM,60.3
